Data reported in EP0227431A1, “Heterocyclic amides” (BEECHAM GROUP PLC, priority 1985, dated 1987).

Experiments:
[1] = system: Phospholipase A2 (Naja naja venom, Sigma); assay: Inhibition of Phospholipase A2 Activity (Method A); format: biochemical; conditions: inhibition of arachidonic acid release, tested in triplicate
Procedure: Inhibition of Phospholipase A2 Activity
Enzyme: Phospholipase A2 (Naja naja venom, Sigma)
Substrate: Diarachidoyl phosphatidylcholine (10.6mg) and α-1-palmitoyl-2-[1-^14C]-arachidonyl phosphatidylcholine (0.5uCi; 52.9mCi/mMol) in 28ml of TrisHCl buffer=100mM, pH 8.7) ultrasonicated.
Assay: Incubations containing PLA2 (0.125ng) in Tris HC1 buffer (lOOmM, pH 8.7) and CaCl2 (4mM) were prepared on ice. Immediately prior to incubation at 37°C 5µl of DMSO or compound in DMSO were added. The final assay volume was 1.75ml. After 10 minutes at 37 °C 750µl of substrate was added, with mixing, and the incubation continued for a further 15 min. The reaction was terminated by placing on ice and adding 5ml CHCl3:MeOH (2:lv/v).
The lower organic phase was removed and stored under N2 at-20 °C until analysed. Analysis was by 1-dimensional t.l.c. on polygram Sil G sheets in the solvent system petroleum ether: diethyl ether: acetic acid (60:40:1,v/v). In this system the phospholipid remains at the origin and the arachidonic acid has an approximate Rf. value of 0.36. The areas of interest were cut from the plates and radioactivity determined by liquid scintillation counting.
All compounds were tested in triplicate.
Calculation: The radioactivity of the arachidonic acid is expressed as a percentage of the total dpm cut from the plate. The percentage inhibition of arachidonic acid release compared to that of the control was calculated after correction for the level of spontaneous release where: • x = % corrected mean arachidonic acid release in control • y = % corrected arachidionic acid release after inhibition • % inhibition [formula]
The mean of the triplicate samples was calculated giving z + standard deviation%.

[2] = target: T1, 5-Lipoxygenase enzyme (10,000 g supernatant from RBL-1 cells) (Rattus norvegicus, UniProt P12527); assay: Inhibition of 5-Lipoxygenase Activity (Method B); format: biochemical; conditions: decrease in formation of 5-HETE and 5,12-diHETE relative to control
T1 construct: 5-Lipoxygenase enzyme was prepared as a 10,000 g supernatant from RBL-1 cells; endogenous in cells; host or cells: RBL-1 cells (10,000 g supernatant, method of Jakschik)
T1 sequence (P12527 1-673): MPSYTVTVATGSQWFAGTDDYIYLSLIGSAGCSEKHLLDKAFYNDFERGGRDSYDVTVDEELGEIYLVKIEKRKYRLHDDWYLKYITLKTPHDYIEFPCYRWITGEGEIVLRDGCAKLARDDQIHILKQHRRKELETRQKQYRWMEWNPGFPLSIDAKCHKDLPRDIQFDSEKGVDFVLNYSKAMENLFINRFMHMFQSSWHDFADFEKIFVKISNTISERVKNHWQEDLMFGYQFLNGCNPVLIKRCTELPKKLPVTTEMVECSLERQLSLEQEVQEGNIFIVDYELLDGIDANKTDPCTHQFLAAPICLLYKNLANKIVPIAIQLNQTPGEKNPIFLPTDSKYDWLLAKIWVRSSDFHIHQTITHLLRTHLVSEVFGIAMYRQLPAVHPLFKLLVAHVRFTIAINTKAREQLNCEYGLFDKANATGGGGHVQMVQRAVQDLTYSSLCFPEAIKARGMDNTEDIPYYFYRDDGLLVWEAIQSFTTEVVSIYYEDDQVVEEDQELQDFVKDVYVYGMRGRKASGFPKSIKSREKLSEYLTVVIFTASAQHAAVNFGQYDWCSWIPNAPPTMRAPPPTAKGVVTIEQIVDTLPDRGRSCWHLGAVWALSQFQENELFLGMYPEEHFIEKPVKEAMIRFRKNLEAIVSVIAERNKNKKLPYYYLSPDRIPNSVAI
Procedure: Inhibition of 5-Lipoxygenase Activity
5-Lipoxygenase enzyme was prepared as a 10,000 g supernatant from RBL-1 cells by the method of Jakschik [Jakschik, B.A., F.F. Sun, L.M. Lee, and M.M.Steinhoff, 1980, Biochem. Biophys. Res. Comm. 95, 103]. The 10,000 g supernatant was diluted with homogenization buffer to the equivalent of 1.5 - 2.5 x 10^7 cells. ml-^1 and made 2mM with respect to CaCl2. Aliquots of 0.5 ml were then dispensed into tubes, and incubated at 29 °C with 5 µl ethanol or compound in ethanol at the desired concentration for 2 min. Then [1-^14C] arachidonic acid was added in buffer to give a final concentration of 6.3 uM and 0.2 µCi per incubation, and the reaction continued at 29 °C for 2 min. The reaction was terminated by adding 1 ml of acetone and cooling on ice, 0.5 ml of ice-cold saline and 10 µl of 2N formic acid were added, and the mixture was extracted with 2 x 2 ml of chloroform. The extract was stored under N2at -20°C until analysis by chromatography. Activity was measured as the percentage of total radioactivity found in 5-HETE and 5,12-diHETE, and inhibition calculated as the decrease in formation of the sum of these two species in compound-treated incubates relative to control incubates.

SMILES	Phospholipase A2 Inhibition at 20µM (%) [1] [%]	inhibition at 20 µM [2] [%]
CCOC(=O)c1c[nH]nc1NC(=O)C=Cc1ccc(O)c(O)c1 [Example 9, Ethyl 3-[N-(3,4-dihydroxycinnamol)amino]pyrazole-4-carboxylate]	71	97
COc1ccc(C=CC(=O)Nc2ccsc2C(=O)O)cc1OC [Example 15, 3-[N-(3,4-Dimethoxycinnamoyl)amino]thiophene-2-carboxylic acid]	10	0
CCOC(=O)c1cccnc1NC(=O)C=Cc1ccc(O)c(O)c1 [Example 10, Ethyl-2 [N-(3,4-dihydroxycinnamoyl)amino]pyridine-3-carboxylate]	10	95
COc1cc(C=CC(=O)Nc2ccsc2C(=O)O)ccc1O [Example 13, 3-[N-(4-hydroxy-3-methoxycinnamoyl)-amino]thiophene-2-carboxylic acid.]	26	64
COC(=O)c1sccc1NC(=O)C=Cc1ccc(O)c(O)c1 [Example 7]	84	93
O=C(C=Cc1ccc(O)c(O)c1)Nc1ccsc1C(=O)O [Example 12]	36	88
CCOC(=O)c1c(NC(=O)C=Cc2ccc(O)c(O)c2)sc2c1CCCC2 [Example 11, Ethyl-2[N-3,4-dihydroxycinnamoyl)amino]4,5,6,7-tetrahydrobenzo [bj thiophene-3-carboxylate]	92	91
O=C(C=Cc1ccc(O)c(O)c1)Nc1ncccc1C(=O)O [Example 14, 2-[N-(3,4-dihydroxycinnamoyl)amino]pyridine 3-carboxylic acid]	–	67
COC(=O)c1sccc1NC(=O)C=Cc1ccc(O)c(OC)c1 [Example 8]	26	98
COC(=O)c1sc(-c2ccc(Cl)cc2)cc1NC(=O)C=Cc1ccc(OC(C)=O)c(OC(C)=O)c1 [Example 16, Methyl-5-(4-chlorophenyl)-3-(3,4-diacetoxycinnamoyl-amino)-thiophene-2-carboxylate]	–	60
COC(=O)c1sccc1NC(=O)C=Cc1ccc(OC)c(OC)c1 [Example 6, Methyl-3[N-(3,4-dimethoxycinnamoyl)amino]thiophene-2-carboxylate]	31	81
